Laboratory results published in patent US8057829B2, “Methods for repelling insects using sesquiterpene hydrocarbons and their derivatives” (Sterling International Inc., priority 2008, dated 2011).

Assays:
[1] = tested on: antennae of housefly, sand fly, and mosquitoes Aedes aegypti, Anopheles gambiae, Anopheles stephensi; test: GC-EAD antennal responses to SPME samples of clove essential oil; settings: component of clove essential oil SPME sample; response by one or more of the insects; FIG. 1
Description: The GC-EAD antennal response of a female housefly (Musca domestica), sand fly (Phlebotomus papatasi), and mosquitoes including the species Aedes aegypti, Anopheles gambiae, and Anopheles stephensi were tested with clove essential oil. FIG. 1 is a simultaneous recording of GC flame ionization detection (FID) and electroantennographic detection (EAD) of the insect antennae to solid phase microextraction (SPME: CAR/PDMS) samples of clove essential oil in a 20 ml glass vial for 20 sec.
The following procedures were employed to test the EAD response of an insect antenna to a repellent compound. The GC-EAD technique provides an efficient tool for screening behaviorally active repellents. Several synthetic mixtures of potential insect repellent candidates, mostly sesquiterpene hydrocarbons and derivatives, were analyzed in splitless mode using a Varian CP-3800 GC equipped with a polar column (Innowax; 1.0 μm film thickness, 30 m×0.53 mm ID; J & W Scientific), and a 1:1 effluent splitter that allowed simultaneous flame ionization detection (FID) and EAD of the separated volatile compounds. Helium was used as the carrier gas, and the injector temperature was 220° C. The column temperature was 50° C. for 2 min, rising to 240° C. at 10° C./min, then held for 10 min. The outlet for the EAD was held in a humidified air stream flowing at 0.5 liter/min. over an antennal preparation. A glass capillary indifferent electrode filled with Beadle-Ephrussi Ringer, and grounded via a silver wire, was inserted into the severed insect's head with the antennae. A similar recording electrode connected to a high-impedance DC amplifier with automatic baseline drift compensation was placed in contact with the distal end of one antenna (Zhang et al., Chemoecology, 10:69-80 (2000)). The antennal signals were stored and analyzed on a PC equipped with a serial IDAC interface box and the program EAD ver. 2.5 (Syntech, Hilversum, The Netherlands). The compound 1-octen-3-ol (known attractant for many flies and mosquitoes) was included in most of the synthetic mixtures, as a positive control. […]

[2] = tested on: antennae of housefly, sand fly, and mosquitoes (Aedes aegypti, Aedes increpitus, Anopheles gambiae); test: GC-EAD antennal responses to SPME samples of patchouli essential oil; settings: component of patchouli essential oil SPME sample; response by one or more of the insects; FIG. 2
Description: The following procedures were employed to test the EAD response of an insect antenna to a repellent compound. The GC-EAD technique provides an efficient tool for screening behaviorally active repellents. Several synthetic mixtures of potential insect repellent candidates, mostly sesquiterpene hydrocarbons and derivatives, were analyzed in splitless mode using a Varian CP-3800 GC equipped with a polar column (Innowax; 1.0 μm film thickness, 30 m×0.53 mm ID; J & W Scientific), and a 1:1 effluent splitter that allowed simultaneous flame ionization detection (FID) and EAD of the separated volatile compounds. Helium was used as the carrier gas, and the injector temperature was 220° C. The column temperature was 50° C. for 2 min, rising to 240° C. at 10° C./min, then held for 10 min. The outlet for the EAD was held in a humidified air stream flowing at 0.5 liter/min. over an antennal preparation. A glass capillary indifferent electrode filled with Beadle-Ephrussi Ringer, and grounded via a silver wire, was inserted into the severed insect's head with the antennae. A similar recording electrode connected to a high-impedance DC amplifier with automatic baseline drift compensation was placed in contact with the distal end of one antenna (Zhang et al., Chemoecology, 10:69-80 (2000)). The antennal signals were stored and analyzed on a PC equipped with a serial IDAC interface box and the program EAD ver. 2.5 (Syntech, Hilversum, The Netherlands). The compound 1-octen-3-ol (known attractant for many flies and mosquitoes) was included in most of the synthetic mixtures, as a positive control.

Aedes aegypti [3] = test: Y-tube olfactometer behavioral bioassay (spatial repellency); format: in vivo
Description: (§1) Aegypti and An. stephensi, and one species of sand fly, P. papatasi. Both the mosquitoes and the sand flies used in the study were from colonies maintained at the Walter Reed Army Institute of Research, Department of Entomology, Silver Spring, Md. This Y-tube bioassay system, equipped with CO2-enriched air (ca. 1 l/min) as an attractant, was made from three clear acrylic tubes (4″ diameter; 12″ length) with symmetrical 120° angles among the three tube arms; and a screen butterfly valve on the top part of the bottom releasing tube. These spatial repellency tests were carried out during 8:00 am-12:00 pm (photophase) time period for Ae. aegypti and 1:00-5:00 pm (shifted scotophase) time period for the species of night-flying mosquitoes and sand fly in a temperature and humidity controlled testing room (23-25° C. and 20-40% RH). Female mosquitoes or sand flies were stored at ˜25-26° C., 50-89% RH, 12:12 hr. (L/D), fed with 10% sucrose solution before testing. The candidate chemical (individual or mixture) dispenser and a blank control were placed in the upper left or right arm of the Y-tube before releasing 25-40, 6 to 10 day-old female mosquitoes (or 3 to 10 day-old sand flies) into the bottom tube via a small hole. After a 30-60 sec acclimation period, the butterfly screen valve (door) on the top of the bottom tube was opened. After 10 min., the valve was closed and the numbers of mosquitoes or sand flies in each arm (including the bottom tube) were counted. In order to minimize the position effect, the same experiment was repeated once with the treatment and blank control arms shifted using a new (clean) Y-tube olfactometer and a new batch of mosquitoes/sand flies. Data from these two replicates were pooled for χ2 goodness of fit test (df=1) between the treatment and blank control.

Anopheles stephensi [4] = test: as above; format: in vivo
Description: as §1

Phlebotomus papatasi = test: as above; format: in vivo
Description: as §1

Aedes aegypti [5] = test: K&D module behavioral bioassay (topical repellency, biting); format: in vivo
Description: (§2) The bioassays were conducted with a six-cell in vitro K&D module system, as disclosed in Klun and Debboun, J. Med. Entomol. 37:177-181 (2000), loaded with an “artificial blood” (CPDA+ATP) solution.
(§3) Clove essential oil, patchouli oil, and EAD-active potential repellents, β-caryophyllene, isocaryophyllene, (+)-longifolene, and their 1:1:1 mixture, plus α-guaiene, caryophyllene oxide, and a β-caryophyllene ketone, were tested using the six-cell in vitro K&D module system (Klun and Debboun, J. Med. Entomol. 37:177-181 (2000)) loaded with an “artificial blood” (CPDA+ATP) solution on both Ae. aegypti and An. stephensi in a dose-response fashion. The K&D in vitro assay system has three components: (1) a Plexiglas™ 29.7 cm.×7.1 cm K&D module composed of six adjacent cells, each designed to hold mosquitoes and each having a rectangular 3×4 cm floor hole that is opened and closed by a sliding door; (2) a Plexiglas™ six-well 29.7 cm×7.1 cm water water-bath warmed (38° C.) reservoir with six 3×4 cm wells designed to match the sliding-door openings of the K&D module base and to contain 6 mL warmed “artificial blood” wells covered with a collagen membrane; and (3) a 29.7 cm×7.1 cm'0.4 cm Teflon® separator having six rectangular openings like the K&D module. The K&D module was connected to a constant temperature water circulator at 38° C. The cells were covered with an Edicol collagen membrane strip. Nylon organdy strips with ink cell patterns were numbered and randomly treated with […] of the tested chemical in ethanol (ethanol alone as blank control), plus DEET (ca. 10 μg/cm^2) as a positive control. This treated nylon organdy strip was placed on top of the collagen membrane. The upper section of the K & D module with the six cells each containing 5 mosquitoes (5-10 d old, starved for 24 hr before testing) was placed on top of the nylon strip. The doors to the cells were slid open so the mosquitoes could be free to feed on the “artificial blood” via the collagen membrane if they were hungry. The experiments were allowed to run for 3 minutes, and the number of mosquitoes feeding (biting) in each cell was recorded. After each experiment, the nylon and collagen strips were removed. The CPDA+ATP solution was removed and allowed to dry prior to starting the next experiment. The experiments on each chemical and each mosquito species were run three times before the bottom section with circulated water was cleaned prior to use again.

Anopheles stephensi [6] = test: as above; format: in vivo
Description: as §2, §3

[7] = tested on: Aedes Aegypti, Anopheles stephensi and the sand fly P. papatasi; test: Y-tube bioassay, statements pooled for the three species; format: in vivo, Aedes aegypti; Anopheles stephensi; Phlebotomus papatasi; settings: clove oil ca. 10 mg/day, patchouli oil 15 mg/d, sesquiterpenes 1 to 35 mg/d release
Description: as §1

[8] = Aedes aegypti females, release rate per chemical (1-60 mg/day), 10 min
[9] = Anopheles stephensi females, release rate per chemical (β-Caryophyllene 10 mg/day), 10 min
[10] = Phlebotomus papatasi females, release rate per chemical, 10 min
[11] = 10 μg/cm^2, DEET values are the positive control run with the chemical

C=CCc1ccc(O)c(OC)c1 [eugenol]
GC-EAD antennal activity [1]: EAD-inactive (or weakly active)

C=C(C)[C@@H]1CC[C@H](C)C2=C(C1)[C@@H](C)CC2 [α-Guaiene, α-guaiene]
GC-EAD antennal activity [2]: elicited EAD-activity
Number of mosquitoes in each arm: Blank (Aedes aegypti [3]; [8]): 49
Number of mosquitoes in each arm: Bottom (Aedes aegypti [3]; [8]): 16
Number of mosquitoes in each arm: Repellent (Aedes aegypti [3]; Aedes aegypti females, release rate per chemical (1-60 mg/day), 10 min, two replicates pooled): 13
SAI (Spatial Activity Index) (Aedes aegypti [3]; Aedes aegypti, (Nc − Nt)/(Nc + Nt), −1 to 1, zero indicating no response): 0.58
Number of mosquitoes in each arm: Repellent (Anopheles stephensi [4]; Anopheles stephensi females, release rate per chemical (1-60 mg/day; β-Caryophyllene 10 mg/day), 10 min): 6
Number of mosquitoes in each arm: Blank (Anopheles stephensi [4]; [9]): 20
Number of mosquitoes in each arm: Bottom (Anopheles stephensi [4]; [9]): 40
SAI (Spatial Activity Index) (Anopheles stephensi [4]; Anopheles stephensi, β-Caryophyllene 10 mg/day): 0.54
SAI (Spatial Activity Index) (Phlebotomus papatasi; Phlebotomus papatasi): 0.78
Number of mosquitoes in each arm: Repellent (Phlebotomus papatasi; Phlebotomus papatasi (sand fly) females, release rate per chemical (1-35 mg/day), 10 min): 5
Number of mosquitoes in each arm: Blank (Phlebotomus papatasi; [10]): 41
Number of mosquitoes in each arm: Bottom (Phlebotomus papatasi; [10]): 17
% of biting (±SE) (N = 3) (Aedes aegypti [5]; [11]): 33 ± 7b %
% of biting (±SE) (N = 3) (Aedes aegypti [5]; 100 μg/cm^2): 0 ± 0a %
% of biting (±SE) (N = 3) (Aedes aegypti [5]; 500 μg/cm^2): 0 ± 0a %
% of biting (±SE) (N = 3) (Aedes aegypti [5]; 1000 μg/cm^2): 0 ± 0a %
% of biting (±SE) (N = 3) (Anopheles stephensi [6]; [11]): 40 ± 0b %
% of biting (±SE) (N = 3) (Anopheles stephensi [6]; 100 μg/cm^2): 0 ± 0a %
% of biting (±SE) (N = 3) (Anopheles stephensi [6]; 500 μg/cm^2): 0 ± 0a %
% of biting (±SE) (N = 3) (Anopheles stephensi [6]; 1000 μg/cm^2): 0 ± 0a %
spatial repellency, in words [7]: showed spatial repellency effects
